Measured values as given in patent publication US5374772A, “Substituted benzoic acids, inhibitors of phospholipases A2” (Hoffmann-LaRoche Inc., priority 1993, dated 1994).
Counter-ions that a name gives are not always drawn.

Legend:
[1] = target: T1, HSF-PLA2 (extracellular PLA2 obtained from human synovial fluid) (Homo sapiens, UniProt P14555); test: Assay for Inhibition of HSF-PLA2 In Vitro; type: biochemical; settings: for inhibition at 10 µM: read-out: % Inhib of HSF-PLA2
T1 construct: extracellular enzyme obtained from human synovial fluid; from tissue; host or cells: pooled human synovial fluid (0.1% v/v in the assay)
T1 sequence (P14555 21-144): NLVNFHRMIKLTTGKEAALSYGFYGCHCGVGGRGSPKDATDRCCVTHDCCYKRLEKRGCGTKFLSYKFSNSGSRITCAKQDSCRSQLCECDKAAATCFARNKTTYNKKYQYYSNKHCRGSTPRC
Protocol: The PLA2 used in this test is the extracellular enzyme obtained from human synovial fluid (HSF-PLA2). The assay for HSF-PLA2 activity was a modification of the described method [Franson R., Dobrow R., Weiss, J., Elsbach P., and […]. Lipid Res., 19, 18-23 (1978)] which was conducted using [1-^14 C]-oleate-labelled E. coli substrate in excess at a final concentration of 20,000 dpm/ml. This was equivalent to 18.2 mM of cell membrane phospholipid phosphorus and 2×10^9 autoclaved E. coli/ml. The optimal conditions which were developed for the assay of HSF-PLA2 inhibitors are summarized as follows. […] The reaction was terminated by the addition of 2.5 ml of chloroform-methanol (1 to 1.5, v/v). The extraction of lipids from the stopped reaction mixture was conducted by the further additions of 0.5 ml of chloroform and 1 ml of water with mixing. […] The extracted lipid residue was redissolved in […] of a solution containing carrier oleic acid (0.2 mg/ml) of […]]). […] This TLC system rapidly (6 minutes) resolved the enzymatically released product, ^14 C-oleic acid, from the unreacted ^14 C-phospholipid substrate. The unsaturated lipids were located on the chromatogram by a brief exposure to iodine vapor. The oleic acid zone (Rf value 0.95) and phospholipid zone (origin) were cut out, chopped into small pieces, shaken with 2 ml of ethanol-water (80 to 20, v/v) and 15 ml of Aquasol and counted for radioactivity. A control incubation of substrate in the absence of HSF-PLA2 was performed in each experiment. The PLA2 activity of the human synovial fluid was corrected for this small control value. […] The specific activity of PLA2 in the pooled human synovial fluid under the optimal assay conditions was 49.2 nmoles [1-^14 C]-oleic acid released hour^-1 mg^-1. The IC50 (μM concentration of test compound that produces 50% inhibition of PLA2 activity) was determined for each test compound.

[2] = tested on: TPA-induced mouse ear edema; test: TPA Induced Mouse Ear Edema Test (ear punch weight); type: in vivo, male CD-1 mice; settings: 30 minutes prior to TPA, ear punch weight at 6 hours; for inhibition in vivo at 1 mg / inhibition in vivo at 0.3 mg: Mus musculus; for inhibition in vivo at 1 mg: 1 mg topical, read-out: % Inhib of TPA Mouse Ear Edema (1 mg); for inhibition in vivo at 0.3 mg: 0.3 mg topical, read-out: % Inhib of TPA Mouse Ear Edema (0.3 mg)
Protocol: The TPA-induced mouse ear edema test, a model of irritant-induced contact dermatitis is described in the following reference: J. M. Young, B. M. Wagner and […]. Invest. Dermatology 80, 48-52 (1983). For this test, 10 μl of 12-O-tetradecanoylphorbol-13-acetate (TPA), dissolved in a vehicle of pyridine: water: diethyl ether (20:5:75), was applied to the outside of the right ear of 3-4 week old male CD-1 mice (8 animals per group). The test compounds were dissolved in the same vehicle and 10 μl was applied to the inside of the same ear 30 minutes prior to the application of TPA. Ear punches (6 mm) were removed at 6 hours after TPA application, weighed and assayed for myeloperoxidase (MPO) activity as described in the following reference: P. P. Bradley, […]. Christensen and G. Rothstein, J. Invest. Dermatology 78, 206-209 (1982). The wet weight of the ear biopsy punches is a measure of the ear edema and the level of MPO activity in the ear punches is an indicator of neutrophil infiltration. The data are expressed as percent inhibition of drug-[…] relative to the control group.

[3] = tested on: croton oil-induced mouse ear edema; test: Croton Oil Mouse Ear Edema Test; type: in vivo, male CD-1 mice; settings: 1 mg topical, coapplied with croton oil, ear punch weight at 6 hours
Protocol: The croton oil-induced mouse ear edema test, a model of irritant-induced contact dermatitis, has been used for evaluation of the PLA2 inhibitors by the topical route of administration. This test was carried out as described in the following references:
The major active ingredient in croton oil is the tumor promoter 12-O-tetradecanoylphorbol-13-acetate (TPA) and the topical application of TPA to mouse skin has been reported to cause an increase in epidermal PGE2 production as well as an increase in epidermal cell membrane PLA2 activity. Indomethacin, an inhibitor of prostaglandin synthesis, prevented the TPA-mediated increase in epidermal PGE2 levels as well as the TPA-mediated induction of epidermal cell ornithine decarboxylase. Furthermore, the application of PGE2 to mouse skin countered the inhibitory effect of indomethacin upon TPA-stimulated cellular proliferation.
Twenty five μl of a 1% croton oil solution [dissolved in a mixture of pyridine/water/diethyl ether at a ratio of 5/20/75 (croton oil vehicle)] are applied to the outer side of the right ear of 3-4 week old male CD-1 mice (8 animals per group). The test compounds are dissolved directly in the 1% croton oil solution at various concentrations and coapplied. Control animals receive 25 μl of croton oil vehicle on the right ear. Biopsy punches are removed at 6 hours from the fight ear of the animals using a 6 mm skin trephine (Roboz, Washington, D.C.) and the wet weight of the ear punches is determined. The weight of the biopsy punches is a measure of ear inflammation, primarily edema. The data are expressed as percent inhibition relative to control groups.
Statistical analysis of the mean edema values of the control versus the treated groups is performed using Student's t-test. The significance of changes from the mean value for vehicle-treated (control) animals in the following Tables is indicated as follows: *p<0.05, **p<0.01, ***p<0.005,ns/not significant.

Compound	inhibition at 10 µM [1]	inhibition in vivo at 1 mg [2]	also measured
O=C(O)c1cc(OCCCOc2ccc(-c3ccccc3)cc2)cc(OCCCOc2ccc(-c3ccccc3)cc2)c1 [Example 6, 3,5-bis[3-(1,1'-Biphenyl-4-yloxy)propoxy]benzoic acid]	–	–	IC50 ([1]; given as 50 % inhibition at the given concentration, 14C-oleate-labelled E. coli substrate, pH 7.3, 37° C., 30 minutes, read-out: % Inhib of HSF-PLA2: 50 (concentration) = IC50 (μM concentration that produces 50% inhibition of PLA2 activity)): 3 µM
O=C(O)c1cc(OCCOc2cccc3ccccc23)cc(OCCOc2cccc3ccccc23)c1 [Example 8A, 3,5-bis[2-(1-naphthalenyloxy)ethoxy]benzoic acid]	67%	–	–
CCCCCCCCCCCCCCCCCCOc1cc(OCCOc2ccc3ccccc3c2)cc(C(=O)O)c1 [Example 15, 3-[2-(2-Naphthalenyloxy)ethoxy]-5-(octadecyloxy) benzoic acid]	77%	–	–
CCCCCCCCCCCCCCCCCCOc1cc(OCCCOc2ccc([S+](C)[O-])cc2)cc(C(=O)O)c1 (stereo not drawn) [Example 24, 3-[3-[4-(Methylsulfinyl)phenoxy]propoxy]-5-(octadecyloxy)benzoic acid]	72%	43%	–
CCCCCCCCCCCCCCCCCCOc1cc(OCCCOc2ccc(S(C)(=O)=O)cc2)cc(C(=O)O)c1 [Example 26, 3-[3-[4-(Methylsulfonyl)phenoxy]propoxy]-5-(octadecyloxy)benzoic acid]	86%	42%	–
CCCCCCCCCCCCCCCCCCOc1cc(OCCCOc2ccc(OCc3ccccc3)cc2)cc(C(=O)O)c1 [Example 30, 3-[[3-(4-Phenylmethoxy)phenoxy]propoxy]-5-(octadecyloxy)benzoic acid]	–	–	% Inhib of Croton Oil Mouse Ear Edema (1 mg) [3]: 62%
CCCCCCCCCCCCCCCCCCOc1cc(OCCCOc2ccc(O)cc2)cc(C(=O)OC)c1 [Example 34, 3-[3-(4-Hydroxyphenoxy)propoxy]-5-(octadecyloxy) benzoic acid methyl ester]	2%	42%	–
CCCCCCCCCCCCCCOc1cc(OCCCOc2ccc(OCc3ccccc3)cc2)cc(C(=O)O)c1 [Example 36, 3-[3-[4-(Phenylmethoxy)phenoxy]propoxy]-5-(tetradecyloxy)benzoic acid]	87%	52%	–
CCCCCCCCCCCCCCOc1cc(OCCCOc2ccc(O)cc2)cc(C(=O)O)c1 [Example 37, 3-[3-(4-Hydroxyphenoxy)propoxy]-5-(tetradecyloxy) benzoic acid]	75%	57%	–
CCCCCCCCCCOc1cc(OCCCOc2ccc(OCc3ccccc3)cc2)cc(C(=O)O)c1 [Example 39, 3-(Decyloxy)-5-[3-[4-(phenylmethoxy)phenoxy]propoxy]benzoic acid]	61%	–	–
O=C(O)c1cc(OCCCOc2ccc(OCc3ccccc3)cc2)cc(OCCCOc2ccc(OCc3ccccc3)cc2)c1 [Example 41, 3,5-bis[3-[4-(Phenylmethoxy)phenoxy]propoxy]benzoic acid]	54%	54%	–
O=C(O)c1cc(OCCCOc2ccc(O)cc2)cc(OCCCOc2ccc(O)cc2)c1 [Example 42, 3,5-bis[3-(4-Hydroxyphenoxy)propoxy]benzoic acid]	5%	43%	–
CCCCCCCCCCCCCCCCCCOc1cc(OCCCCCCOc2ccc(O)cc2)cc(C(=O)O)c1 [Example 44]	94%	46%	–
CCCCCCCCCCCCCCCCCCOc1cc(OCCCOc2ccccc2O)cc(C(=O)O)c1 [Example 46, 3-[3-(2-Hydroxyphenoxy)propoxy]-5-(octadecyloxy) benzoic acid]	91%	–	inhibition in vivo at 0.3 mg [2]: 47%
CCCCCCCCCCCCCCCCCCOc1ccc(OCCCOc2ccc(OCc3ccccc3)cc2)c(C(=O)O)c1 [Example 49, 5-(Octadecyloxy)-2-[3-[4-(phenylmethoxy)phenoxy]propoxy]benzoic acid]	79%	–	inhibition in vivo at 0.3 mg [2]: 27%
CCCCCCCCCCCCCCCCCCOc1ccc(OCCCOc2ccc(O)cc2)c(C(=O)O)c1 [Example 50, 2-[3-(4-Hydroxyphenoxy)propoxy]-5-(octadecyloxy) benzoic acid]	93%	45%	–
CCCCCCCCCCCCCCCCCCOc1ccc(C(=O)O)c(OCCCOc2ccc(OCc3ccccc3)cc2)c1 [Example 53, 4-(Octadecyloxy)-2-[3-[4-(phenylmethoxy)phenoxy]propoxy]benzoic acid]	55%	17%	–
CCCCCCCCCCCCCCCCCCOc1ccc(C(=O)O)c(OCCCOc2ccc(O)cc2)c1 [Example 54, 2-[3-(4-Hydroxyphenoxy)propoxy]-4-(octadecyloxy) benzoic acid]	79%	31%	–
CCCCCCCCCCCCCCCCCCOc1cccc(C(=O)O)c1OCCCOc1ccc(OCc2ccccc2)cc1 [Example 57, 3-(Octadecyloxy)-2-[3-[4-(phenylmethoxy)phenoxy]propoxy]benzoic acid]	91%	62%	–
CCCCCCCCCCCCCCOc1cc(OCCCCCCc2cccc(O)c2O)cc(C(=O)OC)c1 [Example 61, 3-[[6-(2,3-Dihydroxyphenyl)hexyl]oxy]-5-(tetradecyloxy) benzoic acid methyl ester]	17%	44%	–
CCCCCCCCCCOc1cc(OCCCCCCc2cccc(O)c2O)cc(C(=O)OC)c1 [Example 66, 3-(Decyloxy)-5-[[6-(2,3-dihydroxyphenyl)hexyl]oxy]benzoic acid methyl ester]	22%	–	inhibition in vivo at 0.3 mg [2]: 55%
CCCCCCCCCCOc1cc(OCCCCCCc2cccc(O)c2O)cc(C(=O)OCCN(CC)CC)c1 [Example 71, 3-(Decyloxy)-5-[[6-(2,3-dihydroxyphenyl)hexyl]oxy]benzoic acid 2-(diethylamino)ethyl ester monohydrochloride salt]	–	57%	–
CCCCCCCCCCOc1cc(OCCCCCCc2cccc(O)c2O)cc(C(=O)OCOC(C)=O)c1 [Example 72, 3-(Decyloxy)-5-[[6-(2,3-dihydroxyphenyl)hexyl]oxy]benzoic acid (acetyloxy)methyl ester]	–	–	% Inhib of TPA Mouse Ear Edema (0.1 mg) ([2]; 0.1 mg topical): 52%
